Experiments:
Experiment in all cases: relative viability (nuclei count vs DMSO), 5 days (fraction); higher = more cells survive
XMD13-2 + AZD7762 = compound: C1CC1C(=O)NC2=NNC3=C2C=CC(=C3)C4=CC(=CC=C4)C(=O)NC5CC5 [XMD13-2] + NC(=O)Nc1cc(-c2cccc(F)c2)sc1C(=O)N[C@H]1CCCNC1 [AZD7762] (partner 0.2 µM)
Summary of the method: (§1)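 Relative viability was taken as the ratio of nuclei in treated wells to nuclei in vehicle wells. Lung cancer cell lines in 1536-well plates received compounds by pin tool one day after seeding, either one drug alone or a fixed anchor-drug dose plus five library-drug doses (not always all listed) in √10 steps. Nuclei were counted on 4× images after 5 days of treatment, and values are medians of duplicate plates.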

ALW-II-49-7 + Pictilisib = compound: Cc1ccc(C(=O)Nc2cccc(C(F)(F)F)c2)cc1Nc1cncc(C(N)=O)c1 [ALW-II-49-7] + CS(=O)(=O)N1CCN(Cc2cc3nc(-c4cccc5[nH]ncc45)nc(N4CCOCC4)c3s2)CC1 [Pictilisib] (partner 1 µM)
Summary of the method: as §1

ALW-II-49-7 + Linsitinib = compound: Cc1ccc(C(=O)Nc2cccc(C(F)(F)F)c2)cc1Nc1cncc(C(N)=O)c1 [ALW-II-49-7] + C[C@]1(O)C[C@@H](c2nc(-c3ccc4ccc(-c5ccccc5)nc4c3)c3c(N)nccn32)C1 [Linsitinib] (partner 1 µM)
Summary of the method: as §1

Dasatinib + Pemetrexed = compound: Cc1nc(Nc2ncc(C(=O)Nc3c(C)cccc3Cl)s2)cc(N2CCN(CCO)CC2)n1 [Dasatinib] + Nc1nc2[nH]cc(CCc3ccc(C(=O)N[C@@H](CCC(=O)O)C(=O)O)cc3)c2c(=O)[nH]1 [Pemetrexed] (partner 0.2 µM)
Summary of the method: as §1

Row | Cell Line | relative viability (XMD13-2 + AZD7762; first compound 0.05 µM) | relative viability (XMD13-2 + AZD7762; first compound 0.1581 µM) | relative viability (XMD13-2 + AZD7762; first compound 0.5 µM) | relative viability (XMD13-2 + AZD7762; first compound 1.581 µM) | relative viability (XMD13-2 + AZD7762; first compound 5 µM) | relative viability (ALW-II-49-7 + Pictilisib; first compound 0.08 µM) | relative viability (ALW-II-49-7 + Pictilisib; first compound 0.253 µM) | relative viability (ALW-II-49-7 + Pictilisib; first compound 0.8 µM) | relative viability (ALW-II-49-7 + Pictilisib; first compound 2.53 µM) | relative viability (ALW-II-49-7 + Pictilisib; first compound 8 µM) | relative viability (ALW-II-49-7 + Linsitinib; first compound 0.08 µM) | relative viability (ALW-II-49-7 + Linsitinib; first compound 0.253 µM) | relative viability (ALW-II-49-7 + Linsitinib; first compound 0.8 µM) | relative viability (ALW-II-49-7 + Linsitinib; first compound 8 µM) | relative viability (Dasatinib + Pemetrexed; first compound 0.005 µM) | relative viability (Dasatinib + Pemetrexed; first compound 0.05 µM) | relative viability (Dasatinib + Pemetrexed; first compound 0.1581 µM) | relative viability (Dasatinib + Pemetrexed; first compound 0.5 µM) | relative viability (ALW-II-49-7 + Linsitinib; first compound 2.53 µM) | relative viability (Dasatinib + Pemetrexed; first compound 0.01581 µM)
1 | LK-2 | 0.626 | 0.499 | 0.476 | 0.431 | 0.689 | 0.559 | 0.648 | 0.508 | 0.361 | 0.513 | 0.546 | 0.722 | 0.399 | 0.654 | 0.286 | 0.201 | 0.128 | 0.202 | – | –
2 | HCC-827 | 0.199 | 0.22 | 0.207 | 0.202 | 0.224 | 0.988 | 1.03 | 0.887 | 0.815 | 1.03 | 0.94 | 1.06 | 0.962 | 1.08 | 0.253 | 0.256 | 0.239 | 0.133 | 0.981 | 0.251
3 | NCI-H1993 | 0.926 | 0.595 | 0.387 | 0.63 | 0.791 | 0.79 | 1.01 | 0.746 | 0.807 | 0.619 | 0.753 | 0.691 | 0.737 | 0.878 | 0.591 | 0.616 | 0.395 | 0.385 | 0.792 | 0.498
4 | NCI-H647 | 0.558 | 0.521 | 0.532 | 0.406 | 0.248 | 0.489 | 0.507 | – | 0.469 | 0.499 | 1.1 | 1.35 | 1.03 | 1.05 | 0.156 | 0.117 | 0.0903 | 0.0883 | 1.04 | 0.137
5 | NCI-H460 | 0.708 | 0.751 | 0.633 | 0.66 | 0.683 | 0.443 | 0.337 | 0.357 | 0.431 | 0.4 | 0.464 | 0.667 | 0.766 | 0.566 | 0.0609 | 0.0522 | 0.0587 | 0.0433 | 0.566 | 0.062
6 | EMC-BAC-2 | 1.34 | 1.16 | 1.06 | 0.984 | 0.864 | 0.507 | 0.59 | 0.567 | 0.556 | 0.46 | 0.811 | 0.814 | 0.894 | 0.747 | 0.455 | 0.405 | 0.345 | 0.273 | 0.836 | 0.42
7 | NCI-H23 | 0.199 | 0.256 | 0.231 | 0.209 | 0.296 | 0.524 | 0.448 | 0.459 | 0.526 | 0.441 | 0.56 | 0.55 | 0.68 | 0.618 | 0.549 | 0.59 | 0.402 | 0.384 | 0.591 | 0.528
8 | NCI-H1793 | 0.707 | 0.662 | 0.468 | 0.524 | 0.72 | 0.371 | 0.333 | 0.293 | 0.396 | 0.286 | 0.864 | 0.723 | 0.84 | 0.863 | 0.609 | 0.556 | 0.424 | 0.488 | 0.868 | 0.503
9 | A-427 | 0.899 | 0.74 | 0.811 | – | 0.588 | 0.687 | 0.634 | 0.835 | 0.775 | 0.734 | 1.17 | 1.15 | 1.15 | 1.18 | 0.972 | 0.807 | 0.556 | 0.619 | 1.12 | 0.832
10 | NCI-H322M | 0.461 | 0.602 | 0.543 | – | 0.653 | 0.449 | 0.49 | 0.479 | 0.499 | 0.556 | 0.846 | 0.902 | 0.909 | 0.673 | 0.576 | 0.394 | 0.273 | 0.231 | 0.836 | 0.495
11 | NCI-H2085 | 0.993 | 0.995 | 1.04 | 0.848 | 1.09 | 0.499 | 0.496 | 0.445 | 0.5 | 0.537 | 0.669 | 0.866 | 0.843 | 0.942 | 0.743 | 0.491 | 0.23 | 0.205 | 0.84 | 0.756
12 | NCI-H2087 | 1.31 | 1.39 | 1.62 | 1.3 | 1.49 | 1.12 | 1.14 | 0.722 | 0.959 | 0.933 | 1.14 | 0.962 | 0.871 | 0.919 | 0.719 | 0.67 | 0.649 | 0.471 | 0.896 | 0.617
13 | HCC-366 | 0.325 | 0.388 | 0.308 | 0.427 | 0.355 | 0.13 | 0.142 | 0.148 | 0.0944 | 0.217 | 0.68 | 0.636 | 0.698 | 0.791 | 0.173 | 0.166 | 0.177 | 0.114 | 0.682 | 0.147
14 | NCI-H2126 | 1.1 | 1.04 | 0.98 | 1.04 | 0.996 | 0.493 | 0.473 | 0.514 | 0.471 | 0.502 | 0.656 | 0.733 | 0.746 | 0.717 | 0.736 | 0.636 | 0.499 | 0.344 | 0.7 | 0.608
15 | HCC-78 | 0.763 | 0.973 | 0.557 | 0.475 | 0.705 | 0.192 | 0.188 | 0.203 | 0.268 | 0.192 | 0.485 | 0.473 | 0.609 | 0.487 | 0.913 | 0.936 | 0.899 | 0.76 | 0.5 | 0.894
16 | LCLC-97TM1 | 0.249 | 0.26 | 0.231 | – | 0.254 | 0.213 | 0.119 | 0.269 | 0.159 | 0.195 | 0.19 | 0.171 | 0.174 | 0.155 | 0.195 | 0.177 | 0.182 | 0.143 | 0.176 | 0.184
